Experimental data published in patent publication US9394311B2, “Triazolo compounds as PDE10 inhibitors” (Hoffmann-La Roche Inc., priority 2012, dated 2016).

Target: human PDE10A (Homo sapiens (Human), UniProt Q9Y233)
Test: human PDE10A full length Scintillation Proximity Assay (SPA)
Type: biochemical
Conditions: PDE10A full length enzyme, 50 nM cGMP / [3H]-cGMP substrate, 20 minutes at room temperature
In short: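 Full-length human PDE10A with 50 nM cGMP plus 50 nM [3H]-cGMP in 20 mM HEPES pH 7.5, 10 mM MgCl2, 0.05 mg/ml BSA; 20 min at room temperature. Stopped with yttrium silicate SPA beads in zinc sulphate, scintillation counted; IC50 from concentration range.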

Sequence of human PDE10A (Q9Y233 other isoform, or with tags, fused parts or gaps): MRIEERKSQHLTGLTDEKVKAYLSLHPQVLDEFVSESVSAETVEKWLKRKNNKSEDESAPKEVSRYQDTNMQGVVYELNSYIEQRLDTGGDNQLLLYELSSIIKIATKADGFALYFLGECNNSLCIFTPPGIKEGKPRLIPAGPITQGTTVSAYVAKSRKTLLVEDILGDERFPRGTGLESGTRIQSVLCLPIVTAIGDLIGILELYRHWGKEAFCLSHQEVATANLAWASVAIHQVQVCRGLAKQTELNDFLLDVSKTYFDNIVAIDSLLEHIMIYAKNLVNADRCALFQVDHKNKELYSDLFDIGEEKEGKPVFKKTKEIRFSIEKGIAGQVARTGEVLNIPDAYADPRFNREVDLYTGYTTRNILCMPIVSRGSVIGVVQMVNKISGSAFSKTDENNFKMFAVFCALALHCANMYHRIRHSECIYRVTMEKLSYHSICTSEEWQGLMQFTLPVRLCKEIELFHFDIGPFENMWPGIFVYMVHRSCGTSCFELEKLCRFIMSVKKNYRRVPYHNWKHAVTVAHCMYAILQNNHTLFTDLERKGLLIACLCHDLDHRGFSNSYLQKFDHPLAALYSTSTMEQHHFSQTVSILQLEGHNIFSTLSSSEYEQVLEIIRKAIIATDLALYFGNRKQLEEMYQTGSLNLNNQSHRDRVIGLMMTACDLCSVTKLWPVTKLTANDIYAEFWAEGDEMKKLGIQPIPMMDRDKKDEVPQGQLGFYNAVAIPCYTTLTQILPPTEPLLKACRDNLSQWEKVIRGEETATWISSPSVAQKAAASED

Cc1ncc(C)n2nc(CCc3nc(N4CCCC4)n(CC4CC4)n3)nc12 [Example 117b, 2-[2-(1-Cyclopropylmethyl-5-pyrrolidin-1-yl-1H-[1,2,4]triazol-3-yl)-ethyl]-5,8-dimethyl-[1,2,4]triazolo[1,5-a]pyrazine]
IC50: 6.69 nM
